Target: T1, SK2 (Homo sapiens, UniProt Q9H2S1)
T1 construct: expressed in transfected cells; host or cells: HEK293
Experiment: Whole-cell K+ currents in HEK293 cells expressing recombinant SK2
Assay type: cell-based
Settings: 10 μM, FIG. 9B
Description: FIG. 9. Selectivity effect of JPH1701 on SKCa subtype and on IKCa channels. FIG. 9A) Example of whole-cell K^+ currents recorded in HEK293 cells expressing recombinants SK1, SK2, SK3 and IKCa channels before and after application of 10 μM JPH1701 (upper graphs: SK1 and SK2 respectively, bottom graphs: SK3 and IKCa respectively). Currents were generated by ramp protocol from −100 mV to +60 mV in 500 ms from a constant holding of 0 mV and with a pCa 6. FIG. 9B) Histograms showing the effect of 10 μM JPH1701 on SKCa (SK1, SK2, SK3) and IKCa current amplitudes recorded at 0 mV. […] For each channel (SK1, SK2, SK3 and IKCa) the left column (pale grey) represents the control result and the right column (dark grey) represents the result after JPH1701 application.
The selectivity of JPH1701 toward the others members of the SKCa/IKCa channels was tested. […] The experimental protocol was similar to the one used in FIG. 8. JPH1701 was tested for membrane potential from +60 mV to −100 mV on 500 msec.

T1 sequence (Q9H2S1 whole entry): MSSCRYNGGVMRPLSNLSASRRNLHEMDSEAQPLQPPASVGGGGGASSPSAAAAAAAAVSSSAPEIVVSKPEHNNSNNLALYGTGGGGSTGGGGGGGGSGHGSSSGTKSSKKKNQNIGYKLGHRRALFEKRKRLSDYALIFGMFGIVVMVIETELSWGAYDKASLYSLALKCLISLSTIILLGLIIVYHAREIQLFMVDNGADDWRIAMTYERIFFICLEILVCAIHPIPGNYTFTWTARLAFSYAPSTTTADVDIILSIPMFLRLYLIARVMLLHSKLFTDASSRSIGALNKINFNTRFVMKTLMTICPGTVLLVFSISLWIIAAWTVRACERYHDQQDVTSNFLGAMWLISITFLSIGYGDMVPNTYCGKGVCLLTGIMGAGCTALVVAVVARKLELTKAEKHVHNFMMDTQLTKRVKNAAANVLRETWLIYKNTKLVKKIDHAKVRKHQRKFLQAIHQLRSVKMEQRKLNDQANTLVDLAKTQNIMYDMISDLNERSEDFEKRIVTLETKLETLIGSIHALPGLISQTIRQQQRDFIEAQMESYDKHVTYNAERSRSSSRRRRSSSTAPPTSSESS

Substance: hexadecyloxy-2-O-methyl-sn-glycerol-lactose [JPH1701]
- Effect on SK2 channels: inactive
